Laboratory results published in patent US5503776A, “N-acylcarnosines and their use as antioxidants” (National Food Research Institute Ministry of Agriculture, …, priority 1991, dated 1996).
Peptide text beside a SMILES is read from it. * marks the point of attachment. Oleoyl = CCCCCCCC/C=C\CCCCCCCC(=O)*

Tests used:
[1] = Repression of the radical chain autoxidation reaction of methyl linoleate (HPLC of methyl linoleate hydroperoxide); details: hexane/isopropyl alcohol (1:1 v/v), 100 mM methyl linoleate, 10 mM 2,2'-azo-bis(2,4-dimethyl valeronitrile), 37° C.; FIG. 8-10
Description: The N-oleoyl-carnosine, N-caprinoyl-carnosine and N-oleoyl-carnosine methyl ester obtained respectively in Examples 1, 3 and 4 were tested for antioxidizing power in terms of repression of the radical chain autoxidation reaction of methyl linoleate. Hexane/isopropyl alcohol (1:1 v/v) containing 100 mM of methyl linoleate, 10 mM of an oil-soluble generating agent (2,2'-azo-bis(2,4-dimethyl valeronitrile)), and various concentration of N-oleoyl-carnosine, N-caprinoyl-carnosine or N-oleoyl-carnosine methyl ester was kept incubated at 37° C., sampled at intervals along the course of time, and analyzed by high-performance liquid chromatography to follow changes in the amount of methyl linoleate hydroperoxide to be formed.

[2] = Repression of the radical chain autoxidizing reaction of a multilayer liposome (ferrous sulfate/ascorbic acid, TBA reaction); details: 10 μM compound in liposome, 0.1 mM ferrous sulfate, 1 mM ascorbic acid, pH 7.4, 37° C.; FIG. 11
Description: The N-oleoyl-carnosine and the N-oleoyl-histidine obtained respectively in Example 1 and Example 2 were tested for antioxidizing power in terms of the repression of the radical chain autoxidizing reaction of a multilayer liposome. A multilayer liposome was formed of 4 mM of egg yolk phosphatidylcholine, 0.4 mM of egg yolk phosphatidylcholine hydroperoxide,and 10 μM of N-oleoylcarnosine or N-oleoyl-histidine by the use of 10 mM trishydrochloric acid buffer solution (pH 7.4). The multilayer liposome and 0.1 mM of ferrous sulfate and 1 mM of ascorbic acid added thereto were incubated at 37° C., sampled at intervals along the course of time, subjected to the TBA reaction to induce coloration of malondialdehyde resulting from the hydrolysis of lipid peroxide, and analyzed by high-performance liquid chromatography to follow changes in the amount of the hydrolyzate.

[3] = Emulsifying power in soybean oil/phosphate buffer, turbidity of lower layer O.D. (500 nm); format: physicochemical; details: 0.2% in 50 mM phosphate buffer (pH 7), 30° C.; for Relative emulsifying activity (%): one half volume soybean oil, ultrasonic wave, relative to N-oleoyl-carnosine taken as 100; for emulsifying power (in words): oil-water system, soybean oil
Description: The N-oleoyl-carnosine and the N-oleoyl-histidine obtained respectively in Example 1 and Example 2 were tested for emulsifying power. The emulsifying power was determined by dissolving each N-acyl compound in a concentration of 0.2% in 50 mM of phosphate buffer solution (pH 7), combining the resultant solution with one half in volume of soybean oil, subjecting the resultant mixture to a treatment with ultrasonic wave at 30° C., allowing the treated mixture to stand at rest at 30° C. for a prescribed time, and measuring the turbidity of the lower layer consequently separated in the mixture in terms of O.D. (500 nm). […] The magnitudes of emulsifying power given in Table 1 represent relative numerical values of emulsifying power based on the emulsifying power of N-oleoyl-carnosine taken as 100.

Relative emulsifying activity (%) [3]	Compound	antioxidizing power (formation of methyl linoleate hydroperoxide) [1]	antioxidizing power (malondialdehyde from lipid peroxide) [2]	emulsifying power (in words) [3]
–	CCCCCCCCCC(=O)N[C@@H](Cc1c[nH]cn1)C(=O)O [N-caprinoyl histidine]	have antioxidizing powers	–	–
–	CCCCCCCCCC(=O)NCCC(=O)NC(Cc1cnc[nH]1)C(=O)O (centres unmarked) [N-caprinoyl-carnosine, N-Caprinoyl carnosine]	possessed of antioxidizing power	–	–
–	CCCCCCCC/C=C\CCCCCCCC(=O)NCC(=O)NCC(=O)N[C@@H](Cc1c[nH]cn1)C(=O)O [N-oleoyl glycylglycylhistidine] (Oleoyl-Gly-Gly-His-OH)	have antioxidizing powers	–	–
–	CCCCCCCC/C=C\CCCCCCCC(=O)N[C@@H](Cc1c[nH]cn1)C(=O)N[C@@H](CC(C)C)C(=O)O [N-oleoyl histidylleucine] (Oleoyl-His-Leu-OH)	have antioxidizing powers	–	–
82.1%	CCCCCCCC/C=C\CCCCCCCC(=O)N[C@@H](Cc1cnc[nH]1)C(=O)O [N-oleoyl-His]	have antioxidizing powers	possessed of antioxidizing power	possessed of outstanding emulsifying power
–	CCCCCCCC/C=C\CCCCCCCC(=O)NCCC(=O)N[C@@H](Cc1cnc[nH]1)C(=O)OC [N-oleoyl-carnosine methyl ester, N-Oleoyl carnosine methyl ester]	possessed of antioxidizing power	–	–
100%	CCCCCCCC/C=C\CCCCCCCC(=O)NCCC(=O)N[C@@H](Cc1cnc[nH]1)C(=O)O [N-oleoyl-carnosine]	possessed of antioxidizing power	possessed of antioxidizing power	possessed of outstanding emulsifying power

Compound	Relative emulsifying activity (%) [3]	antioxidizing power (formation of methyl linoleate hydroperoxide) [1]	antioxidizing power (malondialdehyde from lipid peroxide) [2]	emulsifying power (in words) [3]
Casein	24.3%	–	–	–
